This is an account of results in PMC7024253, “New Napyradiomycin Analogues from Streptomyces sp. Strain CA-271078” (Marine Drugs, 2019).

In test [1] the test system is methicillin-resistant S. aureus (MRSA) MB5393. The test can be described thus: Antibacterial assay against MRSA. The test is classed as cell-based, Staphylococcus aureus. Conditions: for MIC: Staphylococcus aureus; for MIC / MIC MRSA: MIC = lowest concentration inhibiting ≥ 95% of growth after overnight incubation, top concentration 96 μg/mL (64 μg/mL for 3 and 8).
The next test relates to E. coli ATCC 25922. Briefly: Antibacterial assay against E. coli. The test is classed as cell-based, Escherichia coli. Conditions: top concentration 96 μg/mL (64 μg/mL for 3 and 8); for MIC: Escherichia coli, ATCC25922, MIC = lowest concentration inhibiting ≥ 95% of growth; for MIC Ec: MIC = lowest concentration inhibiting ≥ 95% of growth.
The test system of a further test is A. baumannii MB5973. Briefly: Antibacterial assay against A. baumannii. Format: cell-based, Acinetobacter baumannii. Conditions: MIC = lowest concentration inhibiting ≥ 95% of growth, top concentration 96 μg/mL (64 μg/mL for 3 and 8); for MIC: Acinetobacter baumannii.
Test [2] concerns human liver adenocarcinoma cell line (HepG2). Briefly: Cytotoxicity assay against HepG2. Format: cell-based. Conditions: for IC50: 10 two-fold dilutions starting at 150, 100 (3, 8) or 30.0 μg/mL (1, 5).
Another test deals with M. tuberculosis H37Ra. Briefly: Antibacterial assay against M. tuberculosis. Format: cell-based, Mycobacterium tuberculosis. Conditions: for MIC: Mycobacterium tuberculosis; for MIC / MIC Mt: M. tuberculosis H37Ra, MIC = lowest concentration inhibiting ≥ 95% of growth, top concentration 96 μg/mL (64 μg/mL for 3 and 8).
Another test relates to A. fumigatus ATCC46645. The test can be described thus: Antifungal assay against A. fumigatus. Conditions: A. fumigatus ATCC 46645, MIC = lowest concentration inhibiting ≥ 95% of growth, top concentration 96 μg/mL (64 μg/mL for 3 and 8); for MIC: Aspergillus fumigatus, ATCC46645. Format: cell-based, Aspergillus fumigatus.
The mark [3] stands for this setting: MRSA MB5393, read-out: MIC MRSA.
Setting [4] is: Homo sapiens, HepG2, HepG-2 cytotoxicity.
The mark [5] stands for this setting: MRSA, read-out: MIC MRSA, MRSA MB5393.

Values after ≈ are worked out from the molar mass of the structure shown. Like-named read-outs stand apart in the source and are kept apart here.

As usually defined, the MIC is the lowest concentration that inhibits growth of the organism. As a reminder, the IC50 is the concentration at which inhibition is half-maximal. A higher IC50 goes with a need for much substance. For `C=C(C)C(O)CCC(C)=CCC12OC(C)(C)C(O)C=C1C(=O)c1c(O)cc(O)cc1C2=O` (stereo not shown) [Compound 1, Napyradiomycin A3], the minimum inhibitory concentration (MIC) (in test [1] (setting [3]); in the test on E. coli ATCC 25922; with A. baumannii MB5973) was above 96 µg/mL each time. The same compound yielded an IC50 in test [2] (setting [4]) above 67.8 µM.
In the case of `CC1(C)O[C@@]2(C[C@H]3C(C)(C)[C@@H](Cl)CC[C@]3(C)O)C(=O)c3cc(O)cc(O)c3C(=O)C2=C[C@H]1Cl` [Compound 2, Napyradiomycin B7a], the minimum inhibitory concentration (MIC) in test [1] (setting [5]) was 3 to 48 µg/mL (≈ 6.03 to 96.5 µM); in test [1] (setting [3]), 48 µg/mL (≈ 96.5 µM); against M. tuberculosis H37Ra it was 12 to 24 µg/mL (≈ 24.1 to 48.2 µM); against E. coli ATCC 25922, above 96 µg/mL; with A. baumannii MB5973 it was above 96 µg/mL; with A. fumigatus ATCC46645, above 96 µg/mL. For the same compound, the IC50 in test [2] (HepG-2 cytotoxicity) is 41.7 µM; in test [2] (setting [4]), below 50 µM.
Take `CC1(C)O[C@@]2(C[C@H]3C(C)(C)[C@@H](Cl)CC[C@]3(C)O)C(=O)c3cc(O)cc(O)c3C(=O)C2=C[C@@H]1Cl` [Compound 3, Napyradiomycin B7b]: the MIC (in test [1] (setting [3]); with M. tuberculosis H37Ra; in the test with E. coli ATCC 25922; against A. baumannii MB5973; in the test on A. fumigatus ATCC46645) was above 64 µg/mL throughout. Moreover, inhibition in test [2] (setting [4]) was half-maximal at 110 µM (IC50).
For `CC1(C)O[C@@]2(C[C@H]3C(C)(C)[C@@H](Cl)CC[C@]3(C)O)C(=O)c3cc(O)cc(O)c3C(=O)[C@@]2(O)C[C@H]1Cl` [Compound 4, Napyradiomycin SC], the MIC in test [1] (setting [3]) was above 96 µg/mL; against M. tuberculosis H37Ra, 24 to 48 µg/mL (≈ 46.6 to 93.1 µM); in the test on E. coli ATCC 25922, above 96 µg/mL; with A. baumannii MB5973 it was above 96 µg/mL; against A. fumigatus ATCC46645, above 96 µg/mL. Besides, the IC50 in test [2] (setting [4]) came out at 264 µM.
Regarding `CC1=CCC23OC(C)(C)C(Cl)CC2(Cl)C(=O)c2c(cc(O)cc2C3=O)OCC(C)=CCC1` (stereo not shown) [Compound 5, Napyradiomycin D1], the MIC in test [1] (setting [5]) was 3 to 48 µg/mL (≈ 6.26 to 100 µM); in test [1] (setting [3]), 12 to 24 µg/mL (≈ 25 to 50.1 µM); in the test on M. tuberculosis H37Ra, 24 to 48 µg/mL (≈ 50.1 to 100 µM); in the test on E. coli ATCC 25922, above 96 µg/mL; in the test with A. baumannii MB5973, above 96 µg/mL. Moreover, the “growth-inhibitory activity against methicillin-resistant Staphylococcus aureus (in words)” value in test [1] (abstract statement) was “significant growth-inhibitory activity”. In the test on M. tuberculosis H37Ra (abstract statement), the “growth-inhibitory activity against Mycobacterium tuberculosis (in words)” value is listed as “significant growth-inhibitory activity”. Also, the “growth-inhibitory activity against HepG2 (in words)” value in test [2] (abstract statement) is reported as “significant growth-inhibitory activity”.
Consider `CC1(C)OC2=C(CC1Cl)C(=O)c1c(O)cc(O)cc1C2=O` (stereo not drawn) [Compound 7, 3-chloro-6,8-dihydroxy-8-α-lapachone], for which the “MIC MRSA” value in test [1] (MRSA MB5393) was in the range of 48 to 96 µg/mL. In addition, the “MIC Mt” value against M. tuberculosis H37Ra lay within 12 to 24 µg/mL. Besides, the “MIC Ec” value against E. coli ATCC 25922 is above 96 µg/mL. Further, the “MIC Ab” value against A. baumannii MB5973 is above 96 µg/mL. Moreover, the “MIC Af” value with A. fumigatus ATCC46645 was above 96 µg/mL. Besides, half-maximal inhibition in test [2] (HepG-2 cytotoxicity) (IC50) required 187 µM.
With `COc1cc(O)c2c(c1)C(=O)C1=C(CC(Cl)C(C)(C)O1)C2=O` (stereo not drawn) [Compound 8, 3-chloro-6-hydroxy-8-methoxy-α-lapachone], the “MIC MRSA” value in test [1] (MRSA MB5393) was above 64 µg/mL. Moreover, in the test on M. tuberculosis H37Ra, the “MIC Mt” value is above 64 µg/mL. Further, the “MIC Ec” value against E. coli ATCC 25922 was above 64 µg/mL. Moreover, the “MIC Ab” value against A. baumannii MB5973 is above 64 µg/mL. For the same compound, the “MIC Af” value in the test on A. fumigatus ATCC46645 is above 64 µg/mL. Moreover, half-maximal inhibition in test [2] (HepG-2 cytotoxicity) (IC50) required 30.2 µM.
As to `CC(=CCCC(C)=CCC12OC(C)(C)C(Cl)CC1(Cl)C(=O)c1c(O)cc(O)cc1C2=O)CO` (stereo not shown) [Compound 10, 18-hydroxynapyradiomycin A1], the “MIC MRSA” value in test [1] (MRSA MB5393) was in the range of 48 to 96 µg/mL. For the same compound, in the test on M. tuberculosis H37Ra, the “MIC Mt” value was above 96 µg/mL. In addition, the “MIC Ec” value in the test on E. coli ATCC 25922 was above 96 µg/mL. The “MIC Ab” value with A. baumannii MB5973 is above 96 µg/mL. Further, the “MIC Af” value in the test with A. fumigatus ATCC46645 was above 96 µg/mL. Also, it took 64.4 µM to reach half-maximal inhibition in test [2] (HepG-2 cytotoxicity) (IC50).
For the compound `CC1(C)O[C@@]2(C[C@H]3C(C)(C)[C@@H](Cl)CC[C@]3(C)O)C(=O)c3cc(O)cc(O)c3C(=O)[C@@]2(Cl)C[C@H]1Cl` [Compound 13, napyradiomycin B4], the “MIC MRSA” value in test [1] (MRSA MB5393) was in the range of 12 to 24 µg/mL. For the same compound, the “MIC Mt” value in the test on M. tuberculosis H37Ra was in the range of 12 to 24 µg/mL. The “MIC Ec” value against E. coli ATCC 25922 is above 96 µg/mL. In addition, the “MIC Ab” value with A. baumannii MB5973 is above 96 µg/mL. Moreover, the “MIC Af” value with A. fumigatus ATCC46645 was above 96 µg/mL.
For the compound napyradiomycin A2a [Compound 11], the “MIC MRSA” value in test [1] (MRSA MB5393) lay within 12 to 24 µg/mL. The “MIC Mt” value against M. tuberculosis H37Ra was in the range of 48 to 96 µg/mL. Further, the “MIC Ec” value in the test on E. coli ATCC 25922 was above 96 µg/mL. In addition, the “MIC Ab” value in the test on A. baumannii MB5973 was above 96 µg/mL. Besides, in the test on A. fumigatus ATCC46645, the “MIC Af” value is above 96 µg/mL. The compound also yielded an IC50 in test [2] (HepG-2 cytotoxicity) of 30.4 µM.
Turning to napyradiomycin A2b [Compound 12], the “MIC MRSA” value in test [1] (MRSA MB5393) lay within 12 to 24 µg/mL. For the same compound, the “MIC Mt” value in the test with M. tuberculosis H37Ra fell in the range of 48 to 96 µg/mL. Also, the “MIC Ec” value in the test on E. coli ATCC 25922 is above 96 µg/mL. Moreover, the “MIC Ab” value against A. baumannii MB5973 was above 96 µg/mL. For the same compound, the “MIC Af” value in the test on A. fumigatus ATCC46645 was above 96 µg/mL. Moreover, in test [2] (HepG-2 cytotoxicity), half-maximal inhibition (IC50) required 28.6 µM.
In the case of napyradiomycin B2 [Compound 14], the “MIC MRSA” value in test [1] (MRSA MB5393) is 3 to 6 µg/mL. Moreover, the “MIC Mt” value against M. tuberculosis H37Ra was in the range of 24 to 48 µg/mL. Also, the “MIC Ec” value against E. coli ATCC 25922 was above 96 µg/mL. For the same compound, the “MIC Ab” value against A. baumannii MB5973 is above 96 µg/mL. The “MIC Af” value in the test on A. fumigatus ATCC46645 was above 96 µg/mL. Also, the half-maximal inhibitory concentration (IC50) in test [2] (HepG-2 cytotoxicity) was 27.1 µM.
Turning to napyradiomycin B5 [Compound 15], the “MIC MRSA” value in test [1] (MRSA MB5393) was 12 to 24 µg/mL. The “MIC Mt” value with M. tuberculosis H37Ra was 24 to 48 µg/mL. The “MIC Ec” value in the test on E. coli ATCC 25922 is above 96 µg/mL. Moreover, the “MIC Ab” value against A. baumannii MB5973 is above 96 µg/mL. For the same compound, the “MIC Af” value with A. fumigatus ATCC46645 was above 96 µg/mL. For the same compound, in test [2] (HepG-2 cytotoxicity), the IC50 came to 40.1 µM.
Take napyradiomycin B6 [Compound 9]: in test [1] (MRSA MB5393), the “MIC MRSA” value was in the range of 48 to 96 µg/mL. The “MIC Mt” value against M. tuberculosis H37Ra was 12 to 24 µg/mL. Further, the “MIC Ec” value with E. coli ATCC 25922 was above 96 µg/mL. Also, in the test on A. baumannii MB5973, the “MIC Ab” value was above 96 µg/mL. For the same compound, the “MIC Af” value against A. fumigatus ATCC46645 was above 96 µg/mL. In test [2] (HepG-2 cytotoxicity), this compound came in with an IC50 of 71.2 µM.
